Data published in paper PMC7070908, “Structure-Guided Identification of Black Cohosh (Actaea racemosa) Triterpenoids with In Vitro Activity against Multiple Myeloma” (Molecules, 2020).
Values after ≈ are worked out from the molar mass of the structure shown.

Tests used:
U266 myeloma cell line = assay: Cytotoxicity, flow cytometry (AnnexinV/propidium iodide negativity), U266; type: cell-based, human
Protocol: (§1) Induction of apoptosis was measured in myeloma cell lines NCI-H929, OPM-2, and U266 as well as in peripheral blood mononuclear cells (PBMCs) of healthy donors by flow cytometry using established protocols thereby staining the cells with AnnexinV-fluorescein isothiocyanate and propidium iodide. Bortezomib (Eubio, Vienna, Austria) was used as positive control. Cell lines were purchased from DSMZ (Braunschweig, Germany) and routinely fingerprinted and tested for mycoplasma negativity. All cells (cell lines and PBMC) were grown in RPMI-1640 medium (Life Technologies, Paisley, UK) supplemented with 10% fetal calf serum (FCS; PAA, Linz, Austria), L-glutamine 100 µg/mL, and penicillin-streptomycin 100 U/mL. PBMCs from healthy donors were used after obtaining written informed consent at the University Hospital Salzburg (ethics committee approval 415-E/1287/6-2011). Cells were subjected to Ficoll separation (Ficoll PaqueTM) and incubated in RPMI-1640 Media with supplements as above. In brief, 0.5 × 10^6 myeloma cells/mL or similar numbers of PMBCs were incubated for 24 h and 48 h with or without the tested compounds dissolved in dimethyl sulfoxide at different concentrations. At least three analyses in triplicates were performed for each cell line and a solvent control was always included. As a positive control, the proteasome inhibitor bortezomib (BTZ) was used at concentrations of 10 and 5 nM. The extent of non-apoptotic cells (AnnexinV/propidium iodide negativity) was calculated as percentage of viable cells in respect to the untreated control. Data are shown as mean percentage of viable cells and standard error of the mean (SEM) (error bars).

[1] = tested on: NCI-H929 myeloma cell line; assay: Cytotoxicity, flow cytometry (AnnexinV/propidium iodide negativity), NCI-H929; type: cell-based, human
Protocol: as §1

[2] = tested on: human squamous cell carcinoma (HSC-2) cells; set-up: method as in PMID 11824572; settings: cited from earlier work
OPM-2 myeloma cell line = assay: Cytotoxicity, flow cytometry (AnnexinV/propidium iodide negativity), OPM-2; type: cell-based, human
Protocol: as §1

[3] = tested on: normal human gingival fibroblasts (HGF); set-up: method as in PMID 11824572; settings: cited from earlier work
[4] = tested on: peripheral blood mononuclear cells (PBMCs) of healthy donors; assay: Cytotoxicity, flow cytometry (AnnexinV/propidium iodide negativity), PBMC of healthy donors; type: cell-based, human
Protocol: as §1

[5] = tested on: doxorubicin-resistant-MCF7 (R-MCF7) cells; set-up: method as in PMID 20564500; settings: doxorubicin-resistant MCF7, 48 h of incubation; cited from earlier work
GABA(A)-receptors = tested on: GABA(A)-receptors; set-up: method as in PMID 21082802; settings: cited from earlier work
MCF7 cells = tested on: MCF7 cells; set-up: method as in PMID 20564500; settings: 48 h of incubation; cited from earlier work
[6] = 12.5 µM, 24 h, second round (Table 3)
[7] = 25 µM, 24 h, second round (Table 3)
[8] = 37.5 µM, 24 h, second round (Table 3)
[9] = 25 µM, 24 h, % of untreated control, mean ± SEM (Table 1)
[10] = 25 µM, 48 h, % of untreated control, mean ± SEM (Table 2)
[11] = 50 µM, 24 h, % of untreated control, mean ± SEM (Table 1)
[12] = 50 µM, 48 h, % of untreated control, mean ± SEM (Table 2)

In the case of `COC(C)(C)C1OC23OC1CC(C)C2C1(C)CCC24CC25CCC(OC2OCC(O)C(O)C2O)C(C)(C)C5CCC4C1(C)C3O` [Compound 7, 25-O-methylcimigenol-3-O-α-L-arabinopyranoside], the “MM Cells % Alive U266” value (U266 myeloma cell line; [6]) is reported as 97.0 ± 3.5%, the “MM Cells % Alive U266” value (U266 myeloma cell line; [7]) is reported as 51.3 ± 11.8% and the “MM Cells % Alive U266” value (U266 myeloma cell line; [8]) is reported as 5.3 ± 2.8%. The IC50 (U266 myeloma cell line; Homo sapiens, U-266, 24 h, incubation for 24 h) was 16.2 µg/mL (≈ 25.5 µM), the “IC50 U266” value (U266 myeloma cell line; incubation for 24 h) was 16.1 µg/mL (≈ 25.4 µM) and the “MM Cells % Alive NCI-H929” value [1, 6] was 95.5 ± 1.8%. For the same compound, the “MM Cells % Alive NCI-H929” value [1, 7] was 34.3 ± 8.0%, the “MM Cells % Alive NCI-H929” value [1, 8] was 2.5 ± 1.3% and the IC50 ([1]; Homo sapiens, NCI-H929, 24 h, incubation for 24 h) was 14.7 µg/mL (≈ 23.2 µM). For the same compound, the “cytotoxic effects against HSC-2 cells (in words)” value [2] was “moderate effects”, the “MM Cells % Alive OPM-2” value (OPM-2 myeloma cell line; [6]) was 99.8 ± 1.7% and the “MM Cells % Alive OPM-2” value (OPM-2 myeloma cell line; [7]) was 88.0 ± 4.5%. The “MM Cells % Alive OPM-2” value (OPM-2 myeloma cell line; [8]) was 31.3 ± 8.6%, the IC50 (OPM-2 myeloma cell line; Homo sapiens, OPM-2, 24 h, incubation for 24 h) was 21.2 µg/mL (≈ 33.4 µM) and the “cytotoxic effects against HGF (in words)” value [3] was “moderate effects”. The “PBMC % Alive” value [4, 6] was 105.3 ± 0.6%, the “PBMC % Alive” value [4, 7] was 81.0 ± 8.5% and the “PBMC % Alive” value [4, 8] was 25.0 ± 6.3%. For the same compound, the IC50 ([4]; Homo sapiens, PBMC, 24 h, incubation for 24 h) was 19.9 µg/mL (≈ 31.3 µM).
In the case of `CC(=O)OC(CC(C)C1C(=O)C(O)C2(C)C3CCC4C(C)(C)C(OC5OCC(O)C(O)C5O)CCC45CC35CCC12C)C1OC1(C)C` [Compound 2, 23-O-acetylshengmanol-3-O-β-D-xylopyranoside], the “IC50 R-MCF7” value [5] is given as 60 µg/mL (≈ 90.5 µM), the “effect on GABA(A)-receptors, factor by which it exceeds actein (1) and compound 3” value (GABA(A)-receptors) is given as over 5 and the “MM Cells % Alive U266” value (U266 myeloma cell line; [9]) is given as 79.4 ± 20.2%. For the same compound, the “MM Cells % Alive U266” value (U266 myeloma cell line; [10]) was 90.2 ± 1.7%, the “MM Cells % Alive U266” value (U266 myeloma cell line; [11]) was 56.3 ± 21.4% and the “MM Cells % Alive U266” value (U266 myeloma cell line; [12]) was 62.1 ± 0.4%. The “MM Cells % Alive NCI-H929” value [1, 9] was 87.7 ± 4.9%, the “MM Cells % Alive NCI-H929” value [1, 10] was 63.9 ± 10.6% and the “MM Cells % Alive NCI-H929” value [1, 11] was 27.9 ± 12.2%. For the same compound, the “MM Cells % Alive NCI-H929” value [1, 12] was 17.4 ± 7.3%, the “MM Cells % Alive OPM-2” value (OPM-2 myeloma cell line; [9]) was 86.2 ± 8.6% and the “MM Cells % Alive OPM-2” value (OPM-2 myeloma cell line; [10]) was 84.6 ± 1.0%. The “MM Cells % Alive OPM-2” value (OPM-2 myeloma cell line; [11]) was 71.0 ± 11.2%, the “MM Cells % Alive OPM-2” value (OPM-2 myeloma cell line; [12]) was 51.7 ± 8.9% and the “IC50 MCF7” value (MCF7 cells) was 39 µg/mL (≈ 58.8 µM). For the same compound, the “PBMC % Alive” value [4, 9] was 94.7 ± 1.8%, the “PBMC % Alive” value [4, 10] was 92.7 ± 1.7% and the “PBMC % Alive” value [4, 11] was 84.0 ± 3.0%. For the same compound, the “PBMC % Alive” value [4, 12] was 76.1 ± 2.1%.
